# Results: US20210300940A1 (Merck Patent GmbH, priority 2018, published 2021)
# Tests used:
# TLR7 = biological target: T1, TLR7 (Homo sapiens, UniProt Q9NYK1); test: HEK/293 TLR7 Cell Assay; assay type: cell-based; conditions: TLR7/NFKb HEK cells, R848 agonist 10 uM final concentration, Steady-Glo readout; read-out: TLR7 potency
# T1 construct: expressed in transfected cells; host or cells: HEK/293 cells carrying TLR7 and an NF-kB luciferase reporter
# T1 sequence (Q9NYK1 27-1049): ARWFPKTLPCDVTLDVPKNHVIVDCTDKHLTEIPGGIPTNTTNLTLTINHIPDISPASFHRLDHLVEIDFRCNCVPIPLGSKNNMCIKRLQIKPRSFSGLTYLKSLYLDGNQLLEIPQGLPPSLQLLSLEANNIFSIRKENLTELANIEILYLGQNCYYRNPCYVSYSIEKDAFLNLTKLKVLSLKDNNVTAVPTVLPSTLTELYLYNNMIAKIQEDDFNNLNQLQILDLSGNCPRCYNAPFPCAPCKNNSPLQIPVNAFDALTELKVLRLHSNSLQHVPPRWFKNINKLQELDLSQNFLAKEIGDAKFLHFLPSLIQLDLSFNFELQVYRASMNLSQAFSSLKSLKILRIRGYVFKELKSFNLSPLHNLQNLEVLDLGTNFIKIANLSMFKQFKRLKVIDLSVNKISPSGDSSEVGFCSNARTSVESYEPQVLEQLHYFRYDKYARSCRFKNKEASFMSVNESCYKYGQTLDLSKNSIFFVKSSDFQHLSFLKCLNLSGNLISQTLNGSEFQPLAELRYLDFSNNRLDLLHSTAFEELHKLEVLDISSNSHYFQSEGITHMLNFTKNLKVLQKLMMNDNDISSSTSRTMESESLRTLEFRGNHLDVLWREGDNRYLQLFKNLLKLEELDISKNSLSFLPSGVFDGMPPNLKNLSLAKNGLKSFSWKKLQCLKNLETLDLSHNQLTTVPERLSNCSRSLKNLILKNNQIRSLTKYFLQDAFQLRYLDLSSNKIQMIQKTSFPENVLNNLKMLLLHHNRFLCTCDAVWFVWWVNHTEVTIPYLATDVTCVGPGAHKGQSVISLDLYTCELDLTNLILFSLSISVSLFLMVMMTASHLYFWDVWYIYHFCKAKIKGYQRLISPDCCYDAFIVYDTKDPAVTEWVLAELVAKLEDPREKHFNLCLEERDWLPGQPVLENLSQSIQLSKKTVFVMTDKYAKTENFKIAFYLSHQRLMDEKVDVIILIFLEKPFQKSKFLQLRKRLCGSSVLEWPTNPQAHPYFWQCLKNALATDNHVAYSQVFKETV
# Summary of the method: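 Compounds added to HEK cells expressing TLR7 with an NFκB reporter 30 min ahead of 10 uM R848 challenge; luciferase signal (Steady-Glo) measured after 5 h, cells having been seeded 24 h earlier at 5000 per well.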
# TLR8 = biological target: T2, TLR8 (Homo sapiens, UniProt Q9NR97); test: HEK/293 TLR8 Cell Assay; assay type: cell-based; conditions: HEK cells, R848 agonist 30 uM final concentration, Steady-Glo readout; read-out: TLR8 potency
# T2 construct: expressed in transfected cells; host or cells: HEK/293 reporter cells (NF-kB luciferase)
# T2 sequence (Q9NR97 27-1041): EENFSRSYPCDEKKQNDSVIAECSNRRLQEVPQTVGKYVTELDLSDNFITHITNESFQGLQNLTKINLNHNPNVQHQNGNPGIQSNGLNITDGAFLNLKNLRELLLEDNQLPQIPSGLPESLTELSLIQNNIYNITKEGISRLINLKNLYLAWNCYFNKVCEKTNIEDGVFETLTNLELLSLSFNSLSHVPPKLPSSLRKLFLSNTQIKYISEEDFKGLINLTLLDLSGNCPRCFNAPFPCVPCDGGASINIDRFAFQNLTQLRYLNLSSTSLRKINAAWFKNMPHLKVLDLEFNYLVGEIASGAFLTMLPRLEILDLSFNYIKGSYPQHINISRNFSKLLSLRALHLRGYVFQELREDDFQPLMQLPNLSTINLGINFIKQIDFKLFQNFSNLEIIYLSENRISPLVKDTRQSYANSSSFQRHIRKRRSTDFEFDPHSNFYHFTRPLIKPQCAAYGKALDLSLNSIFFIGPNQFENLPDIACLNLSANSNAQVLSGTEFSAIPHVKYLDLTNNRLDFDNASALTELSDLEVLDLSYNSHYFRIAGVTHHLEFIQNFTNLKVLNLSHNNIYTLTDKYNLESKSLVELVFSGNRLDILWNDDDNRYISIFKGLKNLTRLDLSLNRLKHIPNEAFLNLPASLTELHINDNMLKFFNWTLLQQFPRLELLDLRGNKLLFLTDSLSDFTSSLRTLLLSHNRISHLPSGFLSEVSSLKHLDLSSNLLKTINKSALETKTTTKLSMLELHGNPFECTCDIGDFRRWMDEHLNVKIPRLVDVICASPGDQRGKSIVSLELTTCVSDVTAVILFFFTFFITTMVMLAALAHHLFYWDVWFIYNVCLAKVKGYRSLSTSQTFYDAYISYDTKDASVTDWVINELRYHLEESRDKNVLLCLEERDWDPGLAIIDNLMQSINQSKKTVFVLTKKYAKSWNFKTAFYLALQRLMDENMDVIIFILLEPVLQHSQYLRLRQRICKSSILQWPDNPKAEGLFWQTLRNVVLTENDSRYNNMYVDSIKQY
SMILES,IC50 (TLR7) [nM],IC50 (TLR8) [nM]
"CC(=O)NCCSC[C@H]1CN(c2cnc(C#N)c3ncccc23)C[C@@H](C)O1 [Example 374, N-{2-[(2R,6R)-4-(8-Cyano-[1,7]naphthyridin-5-yl)-6-methyl-morpholin-2-ylmethylsulfanyl]-ethyl}-acetamide]",> 150,75 to 150
"C[C@H]1C[C@@H](n2cccn2)CN(c2ccc(C(F)(F)F)c3nccnc23)C1 (racemic) [Example 155, 5-[cis-3-methyl-5-(1H-pyrazol-1-yl)piperidin-1-yl]-8-(trifluoromethyl)quinoxaline]",> 150,> 150
"C[C@@H]1CN(c2ccc(C(F)(F)F)c3ncccc23)C[C@H](CN2CCC(N3CCOCC3)CC2)O1 [Example 329, 5-[(2R,6S)-2-Methyl-6-(4-morpholin-4-yl-piperidin-1-ylmethyl)-morpholin-4-yl]-8-trifluoromethyl-quinoline]",75 to 150,< 75
"C[C@@H]1CN(c2ccc(C#N)c3ncncc23)C[C@H](C(=O)NC2CCC(N3CCOCC3)CC2)O1 (stereo partly drawn) [Example 268, (2R,6R)-4-(8-Cyano-quinazolin-5-yl)-6-methyl-morpholine-2-carboxylic acid (4-morpholin-4-yl-cyclohexyl)-amide]",< 75,< 75
"N#Cc1ccc(N2C[C@H](NC(=O)C3CCCNC3)C[C@H](C(F)(F)F)C2)c2cccnc12 (stereo partly drawn) [Example 185, Piperidine-3-carboxylic acid [(3R,5S)-1-(8-cyano-quinolin-5-yl)-5-trifluoromethyl-piperidin-3-yl]-amide]",> 150,75 to 150
"C[C@@H]1CN(c2ccc(C#N)c3ncncc23)C[C@H](C(=O)NC2CCNCC2(F)F)O1 (stereo partly drawn) [Example 299, (2R,6R)-4-(8-Cyano-quinazolin-5-yl)-6-methyl-morpholine-2-carboxylic acid (3,3-difluoro-piperidin-4-yl)-amide]",< 75,< 75
"C[C@@H]1CN(c2cnc(C#N)c3ncccc23)C[C@H](CNC(=O)[C@@]2(F)CCN(C)C2)O1 (single isomer, unassigned) [Example 334]",> 150,< 75
"Cc1c(F)cc(N2C[C@@H](C)C[C@@H](NC(=O)NCCN(C)C)C2)c2cccnc12 [Example 145, 3-[2-(dimethylamino)ethyl]-1-[(3R,5S)-1-(7-fluoro-8-methylquinolin-5-yl)-5-methylpiperidin-3-yl]urea]",< 75,< 75
"C[C@H]1C[C@@H](NC(=O)N[C@@H]2CCCNC2)CN(c2ccc(C(F)(F)F)c3ncccc23)C1 [Example 146, 3-[(3R,5S)-5-methyl-1-[8-(trifluoromethyl)quinolin-5-yl]piperidin-3-yl]-1-[(3R)-piperidin-3-yl]urea]",> 150,< 75
"N#Cc1ccc(N2C[C@@H](C(F)(F)F)O[C@@H](C(=O)NC[C@@]3(F)CCNC3)C2)c2nccnc12 (single isomer, unassigned) [Example 307]",< 75,< 75
"C[C@@H]1CN(c2cnc(C#N)c3ncccc23)C[C@H](CN2CCN(S(N)(=O)=O)CC2)O1 [Example 382, 4-{[(2S,6R)-4-(8-cyano-1,7-naphthyridin-5-yl)-6-methylmorpholin-2-yl]methyl}piperazine-1-sulfonamide]",> 150,> 150
"C[C@H]1C[C@@H](NS(=O)(=O)NC2CCN(C)CC2)CN(c2ccc(C(F)(F)F)c3ncccc23)C1 [Example 200, N-(1-methylpiperidin-4-yl){[(3R,5S)-5-methyl-1-[8-(trifluoromethyl)quinolin-5-yl]piperidin-3-yl]amino}sulfonamide]",< 75,< 75
"C[C@H]1C[C@@H](NC(=O)[C@@H](N)[C@@H](C)O)CN(c2ccc(C(F)(F)F)c3ncccc23)C1 [Example 169, (2S,3R)-2-Amino-3-hydroxy-N-[(3R,5S)-5-methyl-1-(8-trifluoromethyl-quinolin-5-yl)-piperidin-3-yl]-butyramide]",< 75,< 75
